According to PubChem BioAssay (NCI):
Values joined by “and” are separate entries in the source; they are usually repeats but may differ in a detail not shown here. Equal entries are not always repeated.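 Grown in 96-well plates, cells were treated for 48 hours with each compound at five concentrations. Insufficient inhibition: endpoint recorded as highest concentration tested. GI50 is the concentration that inhibits growth by half. The concentration for full growth arrest is given as TGI.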

How the values were obtained:
Experiment in all cases: NCI anticancer screen, dose series, 48 h
[1] = system: MCF7 breast
[2] = system: OVCAR-4 ovarian
[3] = system: A549 NSCLC
[4] = system: NCI/ADR-RES ovarian
[5] = system: M14 melanoma
[6] = system: DMS 114 small cell lung
[7] = system: EKVX NSCLC
[8] = system: SN12C renal
[9] = system: HOP-62 NSCLC
[10] = system: COLO 205 colon
[11] = system: SK-MEL-2 melanoma
[12] = system: SF-295 CNS
[13] = system: OVCAR-5 ovarian
[14] = system: HCC-2998 colon
[15] = system: ACHN renal
[16] = system: NCI-H460 lung
[17] = system: KM12 colon
[18] = system: RXF-631 renal
[19] = system: MDA-MB-231 breast
[20] = system: OVCAR-3 ovarian
[21] = system: SK-OV-3 ovarian
[22] = system: DLD-1 colon
[23] = system: NCI-H226 lung
[24] = system: HCT-116 colon
[25] = system: CCRF-CEM leukemia
[26] = system: KM20L2 colon
[27] = system: LOX IMVI melanoma
[28] = system: OVCAR-8 ovarian
[29] = system: MOLT-4 leukemia
[30] = system: HS 578T breast
[31] = system: SW-620 colon
[32] = system: SNB-78 CNS
[33] = system: M19-MEL melanoma
[34] = system: HCT-15 colon
[35] = system: SK-MEL-5 melanoma
[36] = system: HOP-92 NSCLC
[37] = system: MDA-MB-435
[38] = system: A498 renal
[39] = system: SF-539 CNS
[40] = system: DMS 273 small cell lung
[41] = system: DU-145 prostate
[42] = system: SK-MEL-28 melanoma
[43] = system: T-47D breast
[44] = system: TK-10 renal
[45] = system: SF-268 CNS
[46] = system: NCI-H522 lung
[47] = system: SR leukemia
[48] = system: HL-60(TB) leukemia
[49] = system: UACC-257 melanoma
[50] = system: SNB-75 CNS
[51] = system: HT29 colon
[52] = system: K-562 leukemia
[53] = system: RXF 393 renal
[54] = system: SNB-19 CNS
[55] = system: 786-0 renal
[56] = system: UO-31 renal
[57] = system: BT-549 breast
[58] = system: U251 CNS
[59] = system: UACC-62 melanoma
[60] = system: CAKI-1 renal
[61] = system: IGROV1 ovarian
[62] = system: LXFL 529 NSCLC
[63] = system: MALME-3M melanoma
[64] = system: RPMI-8226 leukemia

Work on `CCCCCCCCCC[C@@H](O)[C@@H]1CC[C@@H]([C@@H]2CC[C@@H]([C@@H](O)CCCCCCCCCC[C@H](O)CC3=CC(C)OC3=O)O2)O1` (stereo partly drawn) yielded a GI50 [1] of 3.52 µM, a TGI [1] greater than 100 µM and a TGI [2] greater than 51.4 µM. The GI50 [3] was 3.05 µM, the TGI [3] was 38.5 µM and the TGI [4] was 5.34 µM and 35.8 µM. For the same compound, the GI50 [5] was 5.47 µM, the TGI [5] was 5.16 µM and 29.6 µM and the TGI [6] was 11.2 µM. For the same compound, the GI50 [7] was 1980 nM, the TGI [7] was 8.5 µM and > 80 µM and the GI50 [8] was 16 µM. It also gave a TGI [8] greater than 100 µM, a GI50 [9] of 4.27 µM and a TGI [9] of 15.4 µM. The TGI [10] was greater than 27.5 µM, the GI50 [11] was 1230 nM and the TGI [11] was 4.68 µM and 31.2 µM. The GI50 [12] was 686 nM, the TGI [12] was greater than 100 µM and the GI50 [13] was greater than 75.4 µM. It also gave a TGI [13] greater than 100 µM, a TGI [14] of 9.13 µM and a GI50 [15] of 2260 nM. For the same compound, the TGI [15] was 5.75 µM and 20.7 µM, the GI50 [16] was 3.4 µM and the TGI [16] was greater than 100 µM. For the same compound, the GI50 [17] was greater than 100 µM, the TGI [18] was 19.4 µM and the GI50 [19] was 8.01 µM. The TGI [19] was 24.6 µM, the GI50 [20] was 1470 nM and the TGI [20] was 3.34 µM and 22.3 µM. The TGI [21] was 21.9 µM, the TGI [22] was greater than 100 µM and the TGI [23] was 3.49 µM. The TGI [24] was 28.1 µM, the GI50 [25] was 2780 nM and the TGI [26] was greater than 100 µM. The GI50 [27] was 4.26 µM, the TGI [28] was 8.06 µM and > 54.7 µM and the GI50 [29] was 2930 nM. For the same compound, the GI50 [30] was 14 µM, the GI50 [31] was 4.82 µM and the TGI [31] was greater than 100 µM. For the same compound, the TGI [32] was 56.2 µM, the TGI [33] was greater than 100 µM and the GI50 [34] was 4.23 µM. For the same compound, the TGI [34] was greater than 100 µM, the TGI [35] was 3110 nM and 2600 nM and the GI50 [36] was 10.3 µM. The TGI [36] was 8.09 µM and 33.8 µM, the GI50 [37] was 4.04 µM and the GI50 [38] was 8.48 µM. The TGI [38] was 8.64 µM and 34.9 µM, the TGI [39] was 9.39 µM and 13.3 µM and the TGI [40] was 13.5 µM. For the same compound, the GI50 [41] was 23.5 µM, the TGI [41] was greater than 100 µM and the GI50 [42] was 5.25 µM. It also gave a TGI [42] greater than 28.8 µM, a TGI [43] of 40.4 µM and a GI50 [44] of 5.18 µM. The TGI [44] was 9.07 µM and 26 µM, the GI50 [45] was 3.29 µM and the TGI [46] was 13.8 µM. The TGI [47] was 6.32 µM, the GI50 [48] was 1540 nM and the TGI [48] was 2.96 µM and 5.84 µM. The GI50 [49] was less than 46.2 nM, the TGI [49] was 7.89 µM and the GI50 [50] was 6.08 µM. For the same compound, the TGI [50] was 8.58 µM and 18 µM, the GI50 [51] was 26.4 µM and the GI50 [52] was 2940 nM. It also gave a TGI [52] greater than 100 µM, a TGI [53] of 9.8 µM and a TGI [54] of 24.6 µM. For the same compound, the GI50 [55] was 2490 nM, the TGI [55] was 7.95 µM and 12.1 µM and the GI50 [56] was 2420 nM. The TGI [56] was 5.24 µM and > 20 µM, the TGI [57] was 51.6 µM and the TGI [58] was greater than 46 µM. It also gave a GI50 [59] of 7.27 µM, a GI50 [60] of 3.62 µM and a TGI [60] greater than 65.3 µM. The GI50 [61] was 4.4 µM, the TGI [61] was 7.47 µM and 36.8 µM and the TGI [62] was 25.6 µM. For the same compound, the GI50 [63] was 2130 nM, the TGI [63] was 3.86 µM and 7.42 µM and the GI50 [64] was 7.14 µM.
